Read-outs that look alike come from different tables or passages of the source.
Assays:
MiaPaCa-2 = test: Proliferation assay (CellTiter Glo); type: cell-based; conditions: 96 hours; for EC50: Homo sapiens, MIA PaCa-2; for Top Inhibition %: % of top inhibition
HL60 = test: Proliferation assay (CellTiter Glo); type: cell-based, human; conditions: 96 hours; for Top Inhibition %: % of top inhibition; for EC50: Homo sapiens, HL-60
Description: (§1) The dose range for most compounds was 4.6 nM-30 μM. The dose ranges for some compounds were adjusted downward to 0.46 nM-3 μM or 0.08 nM-0.5 μM or 0.03 nM-0.2 μM. […] The results are shown in Tables 3-6 for pancreatic cancer, lung cancer, colon/gastric cancer, and leukemia.

THP1 = test: Proliferation assay (CellTiter Glo); type: cell-based, human; conditions: 96 hours; for EC50: Homo sapiens, THP-1; for Top Inhibition %: % of top inhibition
Description: as §1

H727 = test: Proliferation assay (CellTiter Glo); type: cell-based; conditions: 96 hours; for Top Inhibition %: % of top inhibition; for EC50: Homo sapiens, NCI-H727
Description: as §1

Capan-1 = test: Proliferation assay (CellTiter Glo); type: cell-based; conditions: 96 hours; for Top Inhibition %: % of top inhibition; for EC50: Homo sapiens
Description: as §1

AsPC-1 = test: Proliferation assay (CellTiter Glo); type: cell-based; conditions: 96 hours; for Top Inhibition %: % of top inhibition; for EC50: Homo sapiens, ASPC1
Description: as §1

H358 = test: Proliferation assay (CellTiter Glo); type: cell-based; conditions: HE58, 96 hours; for Top Inhibition %: % of top inhibition; for EC50: Homo sapiens, NCI-H358
Description: as §1

HCT116 = test: Proliferation assay (CellTiter Glo); type: cell-based; conditions: 96 hours; for Top Inhibition %: % of top inhibition; for EC50: Homo sapiens, HCT-116
Description: as §1

KP-4 = test: Proliferation assay (CellTiter Glo); type: cell-based; conditions: 96 hours; for EC50: Homo sapiens; for Top Inhibition %: % of top inhibition
Description: as §1

LS180 = test: Proliferation assay (CellTiter Glo); type: cell-based; conditions: 96 hours; for EC50: Homo sapiens, LS180 (K-RAS: G12D), absolute EC50, read-out: Ab EC50; for Top Inhibition %: LS180, % of top inhibition
Description: as §1

SW620 = test: Proliferation assay (CellTiter Glo); type: cell-based; conditions: 96 hours; for EC50: Homo sapiens, SW-620, SW620 (K-RAS: G12V), absolute EC50, read-out: Ab EC50; for Top Inhibition %: SW620, % of top inhibition
Description: as §1

Pan2.03 = test: Proliferation assay (CellTiter Glo); type: cell-based; conditions: 96 hours; for Top Inhibition %: % of top inhibition
Description: as §1

A549 = test: Proliferation assay (CellTiter Glo); type: cell-based; conditions: 96 hours; for Top Inhibition %: % of top inhibition; for EC50: Homo sapiens
Description: as §1

Pan2.13 = test: Proliferation assay (CellTiter Glo); type: cell-based; conditions: 96 hours; for Top Inhibition %: % of top inhibition
Description: as §1

H441 = test: Proliferation assay (CellTiter Glo); type: cell-based; conditions: 96 hours; for Top Inhibition %: % of top inhibition; for EC50: Homo sapiens, NCI-H441
Description: as §1

AGS = test: Proliferation assay (CellTiter Glo); type: cell-based; conditions: 96 hours; for Top Inhibition %: % of top inhibition; for EC50: Homo sapiens
Description: as §1

CCRF-CEM = test: Proliferation assay (CellTiter Glo); type: cell-based; conditions: 96 hours; for Top Inhibition %: % of top inhibition; for EC50: Homo sapiens
Description: as §1

phospho-PKC (pan) = test: Western blot analysis of PKC signaling pathway elements in A549 cells; type: cell-based; conditions: 48 hours, K103, K102 at 0.5 μM, K101A at […]
Description: (§2) Cancer cells (2-8 million cells) were seeded in 10 cm dishes and grown overnight. For A549 lung cancer cell line, about 3 million cells were seeded. Cells were then treated with different drugs at concentrations described in Table 8 for a period of time up to 48 hours. Cells were lysed in 0.3-0.5 mL of RIPA buffer (Sigma) supplemented with protease inhibitors (Roche) and phosphatase inhibitors (Sigma). Lysates were assayed for protein concentration using BCA kit (Pierce). Normalized amount of lysates (20-30 μg protein/lane) were run on 4-12% NuPage gel (Life Technologies) and the proteins were transferred to the PVDF or nitrocellulose membrane using iBlot® Transfer Stack (Life Technologies). The membranes were probed with primary antibodies shown in Table 9 at 4° C. overnight after blocking with 1×TBST containing 5% non-fat milk. Antibodies from other vendors could also be used in Western blot analysis. After washing 5 times with 1×TBS containing 0.1% Tween20, the membranes were probed with 2nd antibodies Anti-mouse IgG Dylight 800 conjugate or Anti-rabbit IgG DyLight 680 conjugate (1:10000; Cell signaling or similar IR 2nd antibodies from different vendors) at room temperature for one hour. After washing 5 times, the membranes were scanned using Odyssey® Imaging System (Licor Biosciences).

[1] = system: leukemia inhibitory factor (LIF); test: as above; type: cell-based; conditions: Western blot, concentrations of Table 8 (K101A 0.1, 0.5, […]; K101E […]; K102 0.1, 0.5 μM; K103 0.01 μM; Ref1 1 μM; Ref2 0.01 μM)
Description: as §2

[2] = MiaPaCa-2 (K-RAS: G12C), absolute EC50, read-out: Ab EC50
[3] = MiaPaCa-2, relative EC50, read-out: Re EC50
[4] = HL60 (N-RAS: Q61L), absolute EC50, read-out: Ab EC50
[5] = THP1 (N-RAS: G12D), absolute EC50, read-out: Ab EC50
[6] = H727 (K-RAS: G12V), absolute EC50, read-out: Ab EC50
[7] = H727, relative EC50, read-out: Re EC50
[8] = Capan-1 (K-RAS: G12V), absolute EC50, read-out: Ab EC50
[9] = AsPC-1 (K-RAS: G12D), absolute EC50, read-out: Ab EC50
[10] = AsPC-1, relative EC50, read-out: Re EC50
[11] = absolute EC50, read-out: Ab EC50
[12] = relative EC50, read-out: Re EC50
[13] = HCT116 (K-RAS: G13D), absolute EC50, read-out: Ab EC50
[14] = HCT116, relative EC50, read-out: Re EC50
[15] = KP-4 (K-RAS: G12C), absolute EC50, read-out: Ab EC50
[16] = Pan2.03 (K-RAS: G12D), absolute EC50, read-out: Ab EC50
[17] = Pan2.03, relative EC50, read-out: Re EC50
[18] = A549 (K-RAS: G12S), absolute EC50, read-out: Ab EC50
[19] = Pan2.13 (K-RAS: Q61H), absolute EC50, read-out: Ab EC50
[20] = Pan2.13, relative EC50, read-out: Re EC50
[21] = H441 (K-RAS: G12V), absolute EC50, read-out: Ab EC50
[22] = H441, relative EC50, read-out: Re EC50
[23] = AGS (gastric, K-RAS: G12D), absolute EC50, read-out: Ab EC50
[24] = AGS, relative EC50, read-out: Re EC50
[25] = CCRF-CEM (K-RAS: G12D), absolute EC50, read-out: Ab EC50
[26] = CCRF-CEM, relative EC50, read-out: Re EC50

## C/C=C(/C)C(=O)O[C@H]1C(C)=C[C@]23C(=O)[C@@H](C=C(CO)[C@@H](O)[C@]12O)[C@H]1[C@@H](C[C@H]3C)C1(C)C [Compound K102, ingenol-3-angelate]
MiaPaCa-2; [2]
  EC50: 13 nM
MiaPaCa-2; [3]
  EC50: 9 nM
MiaPaCa-2; MiaPaCa-2
  Top Inhibition %: 79.3%
HL60; HL60
  Top Inhibition %: 60.1%
HL60; [4]
  EC50: 15 nM
HL60; HL60, relative EC50, read-out: Re EC50
  EC50: 14 nM
THP1; [5]
  EC50: 15 nM
THP1; THP1, relative EC50, read-out: Re EC50
  EC50: 12 nM
THP1; THP1
  Top Inhibition %: 52.4%
H727; H727
  Top Inhibition %: 61.0%
H727; [6]
  EC50: 22 nM
H727; [7]
  EC50: 4.3 nM
Capan-1; Capan-1
  Top Inhibition %: 46.9%
Capan-1; [8]
  EC50: > 30000 nM
Capan-1; Capan-1, relative EC50, read-out: Re EC50
  EC50: 13 nM
AsPC-1; AsPC-1
  Top Inhibition %: 37.8%
AsPC-1; [9]
  EC50: > 3000 nM
AsPC-1; [10]
  EC50: 14 nM
H358
  Top Inhibition %: 57.5%
H358; [11]
  EC50: 97 nM
H358; [12]
  EC50: 4.5 nM
HCT116; HCT116
  Top Inhibition %: 23.2%
HCT116; [13]
  EC50: > 3000 nM
HCT116; [14]
  EC50: 21 nM
KP-4; [15]
  EC50: 15 nM
KP-4; KP-4, relative EC50, read-out: Re EC50
  EC50: 15 nM
KP-4; KP-4
  Top Inhibition %: 62.2%
LS180
  EC50: > 30000 nM
  Top Inhibition %: 9.3%
SW620
  EC50: > 30000 nM
  Top Inhibition %: 0.0%
Pan2.03; [16]
  EC50: > 3000 nM
Pan2.03; Pan2.03
  Top Inhibition %: 36.9%
Pan2.03; [17]
  EC50: 3.3 nM
A549; A549
  Top Inhibition %: 80.8%
A549; [18]
  EC50: 17 nM
A549; A549, relative EC50, read-out: Re EC50
  EC50: 17 nM
Pan2.13; [19]
  EC50: 3.9 nM
Pan2.13; Pan2.13
  Top Inhibition %: 51.7%
Pan2.13; [20]
  EC50: 1.2 nM
H441; H441
  Top Inhibition %: 50.6%
H441; [21]
  EC50: 1010 nM
H441; [22]
  EC50: 2.4 nM
AGS; AGS
  Top Inhibition %: 42.9%
AGS; [23]
  EC50: > 3000 nM
AGS; [24]
  EC50: 12 nM
CCRF-CEM; CCRF-CEM
  Top Inhibition %: 30.3%
CCRF-CEM; [25]
  EC50: > 3000 nM
CCRF-CEM; [26]
  EC50: 0.9 nM
phospho-PKC (pan)
  phospho-PKC (pan) levels: reduction
[1]
  protein levels of the leukemia inhibitory factor (LIF): did not affect

## CCCCCCCCCCCCCC(=O)O[C@@H]1[C@@H](C)[C@@]2(O)[C@@H](C=C(CO)C[C@]3(O)C(=O)C(C)=C[C@@H]23)[C@@H]2C(C)(C)[C@]12OC(C)=O [Compound K103, 12-O-Tetradecanoylphorbol-13-acetate]
MiaPaCa-2; [2]
  EC50: 0.28 nM
MiaPaCa-2; [3]
  EC50: 0.24 nM
MiaPaCa-2; MiaPaCa-2
  Top Inhibition %: 81.1%
HL60; HL60
  Top Inhibition %: 60.0%
HL60; [4]
  EC50: < 4.6 nM
THP1; [5]
  EC50: < 4.6 nM
THP1; THP1
  Top Inhibition %: 52.9%
H727; H727
  Top Inhibition %: 57.4%
H727; [6]
  EC50: 2.2 nM
H727; [7]
  EC50: 0.37 nM
Capan-1; Capan-1
  Top Inhibition %: 51.0%
Capan-1; [8]
  EC50: 14 nM
AsPC-1; AsPC-1
  Top Inhibition %: 32.7%
AsPC-1; [9]
  EC50: > 500 nM
AsPC-1; [10]
  EC50: 1.3 nM
H358
  Top Inhibition %: 59.6%
H358; [11]
  EC50: 2.2 nM
H358; [12]
  EC50: 0.4 nM
HCT116; HCT116
  Top Inhibition %: 21.4%
HCT116; [13]
  EC50: > 500 nM
HCT116; [14]
  EC50: 1.2 nM
KP-4; [15]
  EC50: < 4.6 nM
KP-4; KP-4
  Top Inhibition %: 70.3%
LS180
  EC50: > 10000 nM
  Top Inhibition %: 14.7%
SW620
  EC50: > 10000 nM
  Top Inhibition %: 1.2%
Pan2.03; [16]
  EC50: > 500 nM
Pan2.03; Pan2.03
  Top Inhibition %: 32.2%
Pan2.03; [17]
  EC50: 0.9 nM
A549; A549
  Top Inhibition %: 80.6%
A549; [18]
  EC50: < 4.6 nM
Pan2.13; [19]
  EC50: > 500 nM
Pan2.13; Pan2.13
  Top Inhibition %: 41.9%
Pan2.13; [20]
  EC50: 0.66 nM
H441; H441
  Top Inhibition %: 46.7%
H441; [21]
  EC50: > 500 nM
H441; [22]
  EC50: 0.75 nM
AGS; AGS
  Top Inhibition %: 47.2%
AGS; [23]
  EC50: > 500 nM
AGS; [24]
  EC50: 1.1 nM
CCRF-CEM; CCRF-CEM
  Top Inhibition %: 37.7%
CCRF-CEM; [25]
  EC50: > 500 nM
CCRF-CEM; [26]
  EC50: 0.24 nM
phospho-PKC (pan)
  phospho-PKC (pan) levels: reduction
[1]
  protein levels of the leukemia inhibitory factor (LIF): did not affect
